Data: patent US8796241B2, “Therapy of tumors and infectious agents deficient in methylthioadenosine phosphorylase” (priority 2007, dated 2014)

Key:
[1] = tested on: MTAP(+) HT29 colon carcinoma cells; test: Coulter counts of HT29 cultures; assay type: cell-based, human; conditions: Example 12
Procedure: (§1) For adherent cell types, cell numbers were determined periodically by releasing cells with trypsin (dead cells that were no longer adherent were removed by two prior rinses of the culture dish) and placing a portion of the resulting cell suspension in a Coulter counter. For cell types that grow in suspension, portions of the culture were counted directly, without trypsin treatment. Coulter counts of cells from each dish were done twice, and almost all experiments were done in duplicate. In the presentation of results, raw data for Coulter counts is given in some cases, while in others, counts have been rounded off to two to three significant figures. (Background Coulter counts—i.e., counts of diluent alone—were insignificant.)
• 5′-dAdo was added to cultures of MTAP(+) HT29 colon carcinoma cells for one day. 5-fluorouracil (FU) was then added and 4 days later cultures were trypsinized, thoroughly dispersed into mostly single cells by vigorous pipetting, and counted. • Initial Coulter count at time of addition of FU: 46,000

mice = conditions: high doses; cited from earlier work
MTAP(−) A549 cells = test: Clonogenic assay of A549 cells; assay type: cell-based, human
Procedure: (§2) Cell viability of adherent cell types was measured by clonogenic assay as follows: after releasing cells with trypsin and removing a portion of the cell suspension for Coulter counting, the remainder of the cell suspension was plated in serial dilutions in growth medium, without drugs. After a period sufficient for clones to reach a size visible by eye (usually 2 to 3 weeks), clones were stained with crystal violet in a saline/methanol solution. Dishes that had fewer than 100 clones were deemed suitable for counting. From these counts and from the dilution factors, the approximate number of viable cells, in the parent treatment dishes, was calculated. […] In clonogenic assays, clone size was often variable, especially after treatment with toxic drugs. Moreover, many of the very small clones may have arisen from cells detached during the weeks of incubation. […] Cloning efficiency for healthy, growing A549 cells was about 50%; for HF cells, efficiency was quite variable, ranging from 25 to 75% (perhaps because the HF cell stock varied, from experiment to experiment, in passage number).
A549 cells were incubated for 4 days with additions shown below, and viable cells measured by clonogenic assay. (Results shown are approximate; see Methods) Cell count in dish at start: 40,000
• MTAP(−) A549 lung tumor cell cultures were treated with F-Ade, with or without MTA, 5′-dAdo, or adenine (Ade), for three days. Coulter counts of cells, and viable cells as determined by clonogenic assay, are shown below: • Initial cell number: 10,340*
• A549 cell cultures were treated with DAP, with or without 5′-dAdo or adenine, for three days. After trypsinization, one-fourth of the cell suspension was counted, and raw data is shown below, with duplicate counts for each sample. The cell suspension was also serially diluted for clonogenic assay. • Counts at start of experiment: Dish one: 36,480; 39,160; Dish two: 52,680; 51,360. • Initial viable cells by clonogenic assay: 180,000.
• Cell cultures were treated with MTX or alanosine for one day. DAP was then added and 3 days later, cells were trypsinized and serially diluted for clonogenic assay. Results are shown below: • Initial viable cells: 146,000
• A549 cells were plated, and after they had adhered to the substrate, medium was changed to methionine-free medium with 10% dialyzed serum. L-ethionine (Eth) and MTA were added, and after 4 days, cell cultures were trypsinized and serially diluted for clonogenic assay. • Initial number of viable cells: 160,000*
• A549 cultures were treated with 6-thioguanine (TG) or 2,6,diaminopurine (DAP), or both, for 3 days. • Initial viable cells: 275,000 • After 3 days: […]

[2] = tested on: MTAP-positive cells and cells lines; test: Applicants' tissue culture experiments on protection of MTAP-positive cells (summary statements); assay type: cell-based, human; mouse
MTAP(+) HF cells [3] = test: Coulter counts of HF cell cultures; assay type: cell-based, human
Procedure: For adherent cell types (e.g., HF, A549, MCF7) cells were plated in 60 mm -diameter plastic tissue culture dishes and incubated at 37° C. in a humidified 5% CO2 atmosphere, in Dulbecco's Modified Eagle's Medium (DME) with 10% fetal bovine serum (FBS). At the start of an experiment, medium was replaced with DME and 10% dialyzed FBS.
as §1
Cell cultures were treated with MeP, with or without 5′-dAdo or MTA, for 4 days. The cell cultures were then changed to fresh medium, with the addition of 30 μM Ade to inhibit further action of the analog. Two days later cultures were trypsinized and a portion of the suspension was counted.
• A. F-Ade was added to cultures of HF cells, with varying amounts of 5′-dAdo. After 3 days, cell numbers were counted. • Initial cell count: 1,100 • After three days:
• Cultures of human fibroblasts were treated with DAP, 5′-dAdo, MTA, adenine, or MTX. Thymidine (15 μM) was added to all cultures. • Initial count was: 1807 • Counts, as raw data, after 3 days of incubation, are shown below: […]
• Human fibroblasts in culture were treated with 6-thioguanine (TG), 2,6-diaminopurine (DAP), or 5′-dAdo for 3 days. After trypsinization, cell numbers were counted. • Initial cell number: 296,000

MTAP(−) HL-60 cells = test: Coulter counts of HL-60 suspension cultures; assay type: cell-based; conditions: Example 13
Procedure: For cell types that grow in suspension (e.g., ML-1, HL-60, K-562) medium was RPMI-1640 with 10% FBS (undialyzed).
as §1
For cells that grow in suspension, the effect of treatments was assessed solely by changes in Coulter count.
• HL-60 cells were grown in RPMI 1640 with 10% FBS. 5′-dAdo, adenine, or neither were added, and after 3 hours, 5-fluorouracil (FU) was added to selected dishes. Six days later, cell numbers were assessed in a Coulter counter. • Initial cell number/ml: 8,160

MTAP(+) HF cells [4] = test: Clonogenic assay of HF cells; assay type: cell-based, human; conditions: 30 μM 5′-dAdo, 2 μM F-Ade, 3 days
Procedure: as §2
• B. F-Ade was added to cultures of MTAP(+) HF cells, with or without 5′-dAdo, for 3 days. Cultures were then trypsinized and serially diluted for clonogenic assay. • Initial number of viable cells per dish: 45,000 • Viable cells after 3 days shown below:
• HF cells were plated, and after they had adhered to the substrate, medium was changed to methionine-free medium, with 10% dialyzed serum. • Initial Coulter count: 73,000*; viable cells: 88,000 • After 3 days in methionine-free medium, with or without L-ethionine (Eth) or MTA: […]

C[C@H]1O[C@@H](n2cnc3c(N)ncnc32)[C@H](O)[C@@H]1O [5′-dAdo, 5′-deoxyadenosine]
blocking of FU toxicity in MTAP(+) HT29 cells [1]: blocked | toxicity in vivo (mice): non-toxic | blocking of MeP toxicity in A549 cells (MTAP(−) A549 cells; 10 μM MeP): not | blocking of DAP toxicity in A549 cells (MTAP(−) A549 cells; 100 μM DAP, Example 7): did not block | blocking of F-Ade toxicity in A549 cells (MTAP(−) A549 cells; 1 to 2 μM F-Ade): not | protection from highly toxic doses of adenine and/or methionine competitive antagonists ([2]; HF, mouse hematopoietic progenitors, HT-29, ML-1, EJ, T-47D, ZR-75-1, MDA-MB-468): provide protection | blocking of toxicity of very high doses of 2,6-diaminopurine, 2-fluoroadenine, 6-methylpurine ([2]; normal human and mouse cells): effectively blocked | Coulter counts (MTAP(+) HF cells [3]; 3 days, 5′-dAdo 60 μM, no F-Ade, initial count 1,100, x56 = cells/dish): 8150 | protection of HF cells against MeP toxicity (MTAP(+) HF cells [3]; Example 3): effectively protected | blocking of DAP toxicity in HF cells (MTAP(+) HF cells [3]; Example 8): blocked | blocking of inhibition by TG and by DAP in HF cells (MTAP(+) HF cells [3]; Example 15): blocked inhibition | protection of HF cells from the combined toxicity of TG and DAP (MTAP(+) HF cells [3]; Example 15): protected | protection from toxicity of F-Ade (MTAP(+) HF cells [3]; increasing concentration of 5′-dAdo): so does protection | protection of HL-60 cells from FU toxicity (MTAP(−) HL-60 cells): not protected | blocking of F-Ade toxicity in HF cells (MTAP(+) HF cells [4]): effectively blocks
